The source of these data is US20250026778A1 (TIUMBIO CO., LTD., priority 2021, published 2025).

The structures appear in SMILES notation.

One experiment deals with T1, his-galectin-3 (Homo sapiens, UniProt P17931).
T1 construct: purchased Abcam
T1 sequence (P17931 whole entry): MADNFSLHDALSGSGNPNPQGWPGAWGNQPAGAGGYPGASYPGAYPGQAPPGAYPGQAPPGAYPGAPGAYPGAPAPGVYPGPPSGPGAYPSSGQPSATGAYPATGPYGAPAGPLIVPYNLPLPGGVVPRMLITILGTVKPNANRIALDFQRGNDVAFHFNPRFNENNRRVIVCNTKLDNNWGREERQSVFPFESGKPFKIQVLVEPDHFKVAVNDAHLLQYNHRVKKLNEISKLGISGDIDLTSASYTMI
As to the kind of experiment: TR-FRET assay (in vitro galectin-3 binding inhibitory activity test). The settings on record: Table 1; compound at 20 μM; 60 nM his-galectin-3, 15 nM biotin-ASF. The method, then: TR-FRET Assay (In Vitro Galectin-3 Binding Inhibitory Activity Test)
TR-FRET assay was performed in ½ Area Plate-96 (PerkinElmer). Final concentrations of components in the assay were 60 nM his-galectin-3 (Abcam), 15 nM biotin-ASF (Axxora), 2 nM Mab anti-6×His Tb (Cisbio) and 20 nM SA-d2 (Cisbio). The reaction was performed in a buffer containing 25 mM HEPES, 100 mM NaCl, 0.005% Tween 20 and 0.05% BSA. 20 μL his-galectin-3 and 1 μL compound were mixed first, and then 20 μL biotin-ASF, 5 μL anti-His Tb and 5 μL SA-d2 were added in order. After incubation for at least 3.5 hours at RT, TR-FRET signals were measured at 615/665 nm […] wavelengths using a VICTOR Nivo (PerkinElmer). The positive control used DMSO instead of the compound, and the negative control excluded ASF-biotin. N-acetyl-D-lactosamine (LacNAc), an endogenous ligand unit of galectin-3, was evaluated together as a control substance to compare galectin-3 binding inhibitory activity.
In the case of `COc1ccc2c(c1)CCC1(O2)O[C@H](CO)[C@H](O)[C@H](n2cc(-c3cc(F)c(F)c(F)c3)nn2)[C@H]1O` (single isomer, unassigned) [Compound A10, (3′R,4'S,5′R,6′R)-6′-(hydroxymethyl)-6-methoxy-4′-(4-(3,4,5-trifluorophenyl)-1H-1,2,3-triazol-1-yl)-3′,4′,5′,6′-tetrahydrospiro[chromane-2,2′-pyran]-3′,5′-diol], the “% Inhibitory activity (at 20 μM)” value is on record as “D (inhibition rate was less than 25%)”.

The same experiment, now with this note: Table 1; compound at 20 μM; 60 nM his-galectin-3, 15 nM biotin-ASF; read-out: % Inhibitory activity (at 20 μM).
`COc1ccc2c(c1)CCC1(O2)O[C@H](CO)[C@H](O)[C@H](n2cc(-c3cc(F)c(F)c(F)c3)nn2)[C@H]1O` (single isomer, unassigned) [Compound A11, (3′R,4'S,5′R,6′R)-6′-(hydroxymethyl)-6-methoxy-4′-(4-(3,4,5-trifluorophenyl)-1H-1,2,3-triazol-1-yl)-3′,4′,5′,6′-tetrahydrospiro[chromane-2,2′-pyran]-3′,5′-diol]: the inhibition at 20 µM is 25 to 50%. Still for that read-out and setting: for `O=C1CCCC2(N1)O[C@H](CO)[C@H](O)[C@H](n1cc(-c3cc(F)c(F)c(F)c3)nn1)[C@H]2O` (single isomer, unassigned) [Compound A89] the value was less than 25%; for `COc1ccc2c(c1)CC[C@]1(O2)O[C@H](CO)[C@H](O)[C@H](OCc2cc3c(F)c(F)ccc3oc2=O)[C@H]1O` [Compound A08, 3-((((2R,3′R,4'S,5'S,6′R)-3′,5′-dihydroxy-6′-(hydroxymethyl)-6-methoxy-3′,4′,5′,6′-tetrahydrospiro[chromane-2,2′-pyran]-4′-yl)oxy)methyl)-5,6-difluoro-2H-chromen-2-one], less than 25%; for `O=c1oc2ccc(F)c(F)c2cc1CO[C@H]1[C@@H](O)[C@@H](CO)O[C@@]2(CCCO2)[C@@H]1O` [Compound A09, 3-((((5S,7R,8S,9S,10R)-8,10-dihydroxy-7-(hydroxymethyl)-1,6-dioxaspiro[4.5]decan-9-yl)oxy)methyl)-5,6-difluoro-2H-chromen-2-one], less than 25%.

As to `OC[C@H]1O[C@@]2(CCCO2)[C@H](O)[C@@H](n2cc(-c3cc(F)c(F)c(F)c3)nn2)[C@H]1O` [Compound A12, (5S,7R,8R,9S,10R)-7-(hydroxymethyl)-9-(4-(3,4,5-trifluorophenyl)-1H-1,2,3-triazol-1-yl)-1,6-dioxaspiro[4.5]decane-8,10-diol], the inhibition at 20 µM fell in the range of 25 to 50%.

For `OC[C@H]1O[C@@]2(CCCO2)[C@H](OCc2ccccc2)[C@@H](n2cc(-c3cc(F)c(F)c(F)c3)nn2)[C@H]1O` [Compound A13, (5S,7R,8R,9S,10R)-10-(benzyloxy)-7-(hydroxymethyl)-9-(4-(3,4,5-trifluorophenyl)-1H-1,2,3-triazol-1-yl)-1,6-dioxaspiro[4.5]decan-8-ol], the inhibition at 20 µM fell in the range of 25 to 50%. Consider `OC[C@H]1O[C@@]2(CCCO2)[C@H](OCc2cccnc2)[C@@H](n2cc(-c3cc(F)c(F)c(F)c3)nn2)[C@H]1O` [Compound A16, (5S,7R,8R,9S,10R)-7-(hydroxymethyl)-10-(pyridin-3-ylmethoxy)-9-(4-(3,4,5-trifluorophenyl)-1H-1,2,3-triazol-1-yl)-1,6-dioxaspiro[4.5]decan-8-ol acetate], for which the inhibition at 20 µM fell in the range of 25 to 50%. Regarding `OC[C@H]1O[C@@]2(CCCO2)[C@H](OCc2ccccn2)[C@@H](n2cc(-c3cc(F)c(F)c(F)c3)nn2)[C@H]1O` [Compound A17, (5S,7R,8R,9S,10R)-7-(hydroxymethyl)-10-(pyridin-2-ylmethoxy)-9-(4-(3,4,5-trifluorophenyl)-1H-1,2,3-triazol-1-yl)-1,6-dioxaspiro[4.5]decan-8-ol], the inhibition at 20 µM was in the range of 25 to 50%. Same read-out and setting: as for `OC[C@H]1O[C@@]2(CCCO2)[C@H](OCc2ccncc2)[C@@H](n2cc(-c3cc(F)c(F)c(F)c3)nn2)[C@H]1O` [Compound A18, (5S,7R,8R,9S,10R)-7-(hydroxymethyl)-10-(pyridin-4-ylmethoxy)-9-(4-(3,4,5-trifluorophenyl)-1H-1,2,3-triazol-1-yl)-1,6-dioxaspiro[4.5]decan-8-ol acetate], the figure is 25 to 50%; as for `OC[C@H]1O[C@@]2(CCCO2)[C@H](OCc2ccc(C(F)(F)F)o2)[C@@H](n2cc(-c3cc(F)c(F)c(F)c3)nn2)[C@H]1O` [Compound A19, (5S,7R,8R,9S,10R)-7-(hydroxymethyl)-10-((5-(trifluoromethyl)furan-2-yl)methoxy)-9-(4-(3,4,5-trifluorophenyl)-1H-1,2,3-triazol-1-yl)-1,6-dioxaspiro[4.5]decan-8-ol], 25 to 50%. The same measure, in the same setting: for `O=C(CO[C@@H]1[C@@H](n2cc(-c3cc(F)c(F)c(F)c3)nn2)[C@@H](O)[C@@H](CO)O[C@@]12CCCO2)c1ccccc1` [Compound A20, 2-(((5S,7R,8R,9S,10R)-8-hydroxy-7-(hydroxymethyl)-9-(4-(3,4,5-trifluorophenyl)-1H-1,2,3-triazol-1-yl)-1,6-dioxaspiro[4.5]decan-10-yl)oxy)-1-phenylethanone] the value was 25 to 50%. As for `O=C(O)CO[C@@H]1[C@@H](n2cc(-c3cc(F)c(F)c(F)c3)nn2)[C@@H](O)[C@@H](CO)O[C@@]12CCCO2` [Compound A21, 2-(((5S,7R,8R,9S,10R)-8-hydroxy-7-(hydroxymethyl)-9-(4-(3,4,5-trifluorophenyl)-1H-1,2,3-triazol-1-yl)-1,6-dioxaspiro[4.5]decan-10-yl)oxy)acetic acid], the inhibition at 20 µM fell in the range of 50 to 75%.

The same experiment, now with this note: Table 2; compound at 20 μM; 60 nM his-galectin-3, 15 nM biotin-ASF.
`CC(C(=O)N[C@@H]1CCO[C@]12O[C@H](CO)[C@H](O)[C@H](n1cc(-c3cc(F)c(F)c(F)c3)nn1)[C@H]2O)c1cccc(Cl)c1` (single isomer, unassigned) [Compound A167]: the “% Inhibitory activity (at 20 μM)” value was “C (inhibition rate was 25%˜ to 50%˜ (exclusive of 50%))”. With `CC(C(=O)N[C@@H]1CCO[C@]12O[C@H](CO)[C@H](O)[C@H](n1cc(-c3cc(F)c(F)c(F)c3)nn1)[C@H]2O)c1cccc(Cl)c1` (single isomer, unassigned) [Compound A168], the “% Inhibitory activity (at 20 μM)” value was “B (inhibition rate was 50%0 to 7500 (exclusive of 75%))”.

Still in this experiment, the particulars now being: Table 2; compound at 20 μM; 60 nM his-galectin-3, 15 nM biotin-ASF; read-out: % Inhibitory activity (at 20 μM).
As for `CC1CO[C@@]2(C1)O[C@H](CO)[C@H](O)[C@H](n1cc(-c3cc(F)c(F)c(F)c3)nn1)[C@H]2OC(=O)c1ccccn1` (single isomer, unassigned) [Compound A235], the inhibition at 20 µM lay in the range of 50 to 75%. Turning to `CC1CO[C@@]2(C1)O[C@H](CO)[C@H](O)[C@H](n1cc(-c3cc(F)c(F)c(F)c3)nn1)[C@H]2OCC(=O)O` (single isomer, unassigned) [Compound A236], the inhibition at 20 µM lay in the range of 50 to 75%.

The same experiment, now with this note: Table 3, found values; compound at 20 μM; 60 nM his-galectin-3, 15 nM biotin-ASF; read-out: % Inhibitory activity (at 20 μM).
`COc1ccc2c(c1)CC[C@]1(O2)O[C@H](CO)[C@H](O)[C@H](OCc2cc3c(F)c(F)ccc3oc2=O)[C@H]1O` [Compound A08, 3-((((2R,3′R,4'S,5'S,6′R)-3′,5′-dihydroxy-6′-(hydroxymethyl)-6-methoxy-3′,4′,5′,6′-tetrahydrospiro[chromane-2,2′-pyran]-4′-yl)oxy)methyl)-5,6-difluoro-2H-chromen-2-one]: the inhibition at 20 µM turned out to be 21.8%.

Still in this experiment, the particulars now being: read-out: % Inhibitory activity (at 20 μM), Table 1; compound at 20 μM; 60 nM his-galectin-3, 15 nM biotin-ASF.
Take `OC[C@H]1O[C@@]2(CCCO2)C(O)[C@@H](n2cc(-c3cc(F)c(F)c(F)c3)nn2)[C@H]1O` (stereo in doubt) [Compound A41, (5S,7R,8R,9S,10R)-7-(hydroxymethyl)-9-(4-(3,4,5-trifluorophenyl)-1H-1,2,3-triazol-1-yl)-1,6-dioxaspiro[4.5]decane-8,10-diol]: the inhibition at 20 µM is less than 25%. The same measure, in the same setting: as for `O=C(OC1[C@@H](n2cc(-c3cc(F)c(F)c(F)c3)nn2)[C@@H](O)[C@@H](CO)O[C@@]12CCCO2)c1cccnc1` (stereo in doubt) [Compound A75, (5S,7R,8R,9S,10S)-8-hydroxy-7-(hydroxymethyl)-9-(4-(3,4,5-trifluorophenyl)-1H-1,2,3-triazol-1-yl)-1,6-dioxaspiro[4.5]decan-10-yl nicotinate], the figure is 25 to 50%.

Still in this experiment, the particulars now being: read-out: % Inhibitory activity (at 20 μM), Table 3, found values; compound at 20 μM; 60 nM his-galectin-3, 15 nM biotin-ASF.
On to `O=C(OC1[C@@H](n2cc(-c3cc(F)c(F)c(F)c3)nn2)[C@@H](O)[C@@H](CO)O[C@@]12CCCO2)c1cccnc1` (stereo in doubt) [Compound A75, (5S,7R,8R,9S,10S)-8-hydroxy-7-(hydroxymethyl)-9-(4-(3,4,5-trifluorophenyl)-1H-1,2,3-triazol-1-yl)-1,6-dioxaspiro[4.5]decan-10-yl nicotinate], for which the inhibition at 20 µM was 32%.
